Molecular target: T1, murine MEKK2 (mMEKK2) (Mus musculus, UniProt Q61083)
T1 sequence (Q61083 1-619): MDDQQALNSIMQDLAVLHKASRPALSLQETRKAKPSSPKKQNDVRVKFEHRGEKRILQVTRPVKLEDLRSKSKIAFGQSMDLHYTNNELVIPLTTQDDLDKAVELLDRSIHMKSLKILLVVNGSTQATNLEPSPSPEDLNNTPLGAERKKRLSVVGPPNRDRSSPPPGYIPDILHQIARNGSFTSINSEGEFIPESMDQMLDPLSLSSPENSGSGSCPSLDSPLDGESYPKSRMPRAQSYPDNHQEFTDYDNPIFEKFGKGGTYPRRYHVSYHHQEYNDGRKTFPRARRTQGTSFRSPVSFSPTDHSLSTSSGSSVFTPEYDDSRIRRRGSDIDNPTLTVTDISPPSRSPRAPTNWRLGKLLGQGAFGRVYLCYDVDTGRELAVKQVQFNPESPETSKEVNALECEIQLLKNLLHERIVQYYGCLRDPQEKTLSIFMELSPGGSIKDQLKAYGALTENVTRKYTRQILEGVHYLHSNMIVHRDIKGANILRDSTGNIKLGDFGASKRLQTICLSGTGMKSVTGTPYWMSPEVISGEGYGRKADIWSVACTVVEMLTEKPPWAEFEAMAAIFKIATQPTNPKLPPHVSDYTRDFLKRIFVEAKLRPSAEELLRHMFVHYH
Assay: TR-FRET kinase assay (mMEKK2/MBP)
Type: biochemical
Details: substrate biotin MBP, 60 minutes at room temperature
Procedure: In one approach, MEKK2 inhibitory activity of compounds of the invention can be assessed using the time-resolved Fluorescence Resonance Energy Transfer (TR-FRET) assay detailed in Example 5. In this assay, the excitation energy of one fluorescent molecule (the donor) is transferred by a resonance mechanism to a nearby second fluorescent molecule (the acceptor), which then releases its fluorescent energy through fluorescent emission. This fluorescent energy is measured using a time-resolved fluorescence measurement protocol (LANCE high count 615/665); excitation occurred with 1,000 flashes at 325 nm, measurement was delayed by 100 μs, and data were acquired for 50 μs at 615 and 665 nm.
A TR-FRET kinase assay was used to screen potential inhibitors of MEKK2. The assay was performed as follows: Compounds to be tested were weighed and solubilized in DMSO (Sigma) to a stock concentration of 10 mM. Serial dilutions starting from 1 mM were prepared with additional DMSO. These dilutions were further diluted to 250 μM in kinase reaction buffer [20 mM Hepes pH 7.5, 5 mM MgCl2, 1 mM DTT (Dithiothreitol-Sigma), 1 mM NaVO4 (sodium vanadate-Sigma). A 25 μl aliquot of this solution was transferred to a black 96-well nonbinding surface microplate (Fisher). A stock aliquot containing […] of murine MEKK2 (mMEKK2) was diluted in the kinase reaction buffer and incubated with the compounds on the microplate for 10 minutes. A 25 μl aliquot of a 138 ng solution of biotin MBP (myelin basic protein—Upstate Biotechnology) was added to the reaction followed by 25 ul of a 25 ng solution of anti-phospho MBP antibody (Upstate Biotechnology) diluted in kinase reaction buffer. Finally an aliquot (50 μl) of a 5 uM solution of ATP (adenosine triphosphate) was added and the reaction was allowed to proceed for 60 minutes at room temperature. The reaction was stopped by the addition of 50 μL of a 12.5 ng solution of europium labeled anti-mouse IgG (Perkin Elmer) and 45 ng of Cy5 labeled streptavidin (Jackson Immunoresearch) in termination buffer (20 mM Hepes pH 7.5, 100 mM EDTA; Sigma). The assay was allowed to equilibrate for 45 minutes before placing the plate on the Victor™ plate reader. The plate was read using the 615/665 LANCE protocol.

Q: For `COc1cccc(-c2nc(SCc3ccc(NC(=O)c4ccc(F)c(C(F)(F)F)c4)cc3)[nH]c(=O)c2C#N)c1` [Example 2rr], which IC50 is on record?
A: < 5 µM

Q: How did the IC50 turn out when `COc1cccc(-c2nc(SCc3cccc(NC(=O)c4sccc4C)c3)[nH]c(=O)c2C#N)c1` [Example 2s] was run?
A: < 10 µM

Q: With `COc1cccc(-c2nc(SCc3ccc(NC(=O)c4cccc(C(F)(F)F)c4)cc3)[nH]c(=O)c2C#N)c1` [Example 2ss] as the compound, how does the IC50 read?
A: < 5 µM

Q: `COc1cccc(-c2nc(SCc3cccc(NC(=O)c4cnn(C)c4Cl)c3)[nH]c(=O)c2C#N)c1` [Example 2t] was tested. Which IC50 did it give?
A: < 40 µM

Q: `COc1cccc(-c2nc(SCc3ccc(NC(=O)c4ccc(Cl)c(Cl)c4)cc3)[nH]c(=O)c2C#N)c1` [Example 2tt] was tested. Which IC50 did it give?
A: < 1 µM

Q: With `COc1cccc(-c2nc(SCc3cccc(NC(=O)c4ccc(OC)cc4OC)c3)[nH]c(=O)c2C#N)c1` [Example 2u] as the compound, how does the IC50 read?
A: < 20 µM

Q: How did the IC50 turn out when `COc1cccc(-c2nc(SCc3ccc(NC(=O)c4cc(C)nn4C(C)(C)C)cc3)[nH]c(=O)c2C#N)c1` [Example 2uu] was run?
A: < 20 µM

Q: Which IC50 does the source give for `COc1cccc(-c2nc(SCc3cccc(NC(=O)c4csc(Cl)c4OC)c3)[nH]c(=O)c2C#N)c1` [Example 2v] here?
A: < 20 µM

Q: For `COc1cccc(-c2nc(SCc3ccc(NC(=O)Cc4ccccc4)cc3)[nH]c(=O)c2C#N)c1` [Example 2vv], which IC50 is on record?
A: < 20 µM

Q: With `COc1cccc(-c2nc(SCc3cccc(NC(=O)c4cc(C)nn4C(C)(C)C)c3)[nH]c(=O)c2C#N)c1` [Example 2w] as the compound, how does the IC50 read?
A: < 40 µM

Q: Which IC50 does the source give for `COc1cccc(-c2nc(SCc3ccc(NC(=O)c4c(F)cc(F)cc4F)cc3)[nH]c(=O)c2C#N)c1` [Example 2ww] here?
A: < 20 µM

Q: For `COc1cccc(-c2nc(SCc3cccc(NC(=O)c4cc(Cl)nc(OC)c4)c3)[nH]c(=O)c2C#N)c1` [Example 2x], which IC50 is on record?
A: < 10 µM

Q: `COc1cccc(-c2nc(SCc3ccc(NC(=O)C4CCN(c5nccc(C(F)(F)F)n5)CC4)cc3)[nH]c(=O)c2C#N)c1` [Example 2xx] was tested. Which IC50 did it give?
A: > 40 µM

Q: Which IC50 does the source give for `COc1cccc(-c2nc(SCc3ccc(NC(=O)c4ccc(Cl)nc4)cc3)[nH]c(=O)c2C#N)c1` [Example 2yy] here?
A: < 20 µM

Q: With `COc1cccc(-c2nc(SCc3ccc(NC(=O)c4cccnc4Oc4ccc(Cl)cc4)cc3)[nH]c(=O)c2C#N)c1` [Example 2zz] as the compound, how does the IC50 read?
A: > 40 µM

Q: With `COc1cccc(-c2nc(SCc3ccc(NC(=O)Nc4cccc5nsnc45)cc3)[nH]c(=O)c2C#N)c1` [Example 3aa] as the compound, how does the IC50 read?
A: < 1 µM

Q: How did the IC50 turn out when `COc1cccc(-c2nc(SCc3cccc(NC(=O)Nc4cc(F)cc(F)c4)c3)[nH]c(=O)c2C#N)c1` [Example 3b, 1-{3-[5-Cyano-4-(3-methoxy-phenyl)-6-oxo-1,6-dihydro-pyrimidin-2-ylsulfanylmethyl]-phenyl}-3-(3,5-difluoro-phenyl)-urea] was run?
A: < 5 µM

Q: For `COc1cccc(-c2nc(SCc3ccc(NC(=O)NC4CCNCC4)cc3)[nH]c(=O)c2C#N)c1` [Example 3bb], which IC50 is on record?
A: > 40 µM

Q: For `COc1cccc(-c2nc(SCc3cccc(NC(=O)NCc4ccccc4)c3)[nH]c(=O)c2C#N)c1` [Example 3c], which IC50 is on record?
A: < 5 µM

Q: With `COc1cccc(-c2nc(SCc3cccc(NC(=O)Nc4ccccc4)c3)[nH]c(=O)c2C#N)c1` [Example 3d] as the compound, how does the IC50 read?
A: < 5 µM

Q: For `COc1cccc(-c2nc(SCc3cccc(NC(=O)NCCc4cccs4)c3)[nH]c(=O)c2C#N)c1` [Example 3e], which IC50 is on record?
A: < 5 µM

Q: How did the IC50 turn out when `COc1cccc(-c2nc(SCc3cccc(NC(=O)NC4CCCC4)c3)[nH]c(=O)c2C#N)c1` [Example 3f] was run?
A: < 5 µM

Q: For `COc1cccc(-c2nc(SCc3cccc(NC(=O)NCc4ccco4)c3)[nH]c(=O)c2C#N)c1` [Example 3g], which IC50 is on record?
A: < 10 µM

Q: `COc1cccc(-c2nc(SCc3cccc(NC(=O)NCc4cc(OC)c(OC)c(OC)c4)c3)[nH]c(=O)c2C#N)c1` [Example 3i] was tested. Which IC50 did it give?
A: < 40 µM

Q: With `COc1cccc(-c2nc(SCc3cccc(NC(=O)Nc4ccc5c(c4)OCCO5)c3)[nH]c(=O)c2C#N)c1` [Example 3j] as the compound, how does the IC50 read?
A: < 10 µM

Q: For `COc1cccc(-c2nc(SCc3cccc(NC(=O)NCCc4ccc5c(c4)OCO5)c3)[nH]c(=O)c2C#N)c1` [Example 3k], which IC50 is on record?
A: < 10 µM

Q: Which IC50 does the source give for `COc1cccc(-c2nc(SCc3ccc(NC(=O)NCc4ccccc4)cc3)[nH]c(=O)c2C#N)c1` [Example 3l] here?
A: < 10 µM

Q: Which IC50 does the source give for `COc1cccc(-c2nc(SCc3ccc(NC(=O)Nc4ccccc4)cc3)[nH]c(=O)c2C#N)c1` [Example 3m] here?
A: < 5 µM

Q: Which IC50 does the source give for `COc1cccc(-c2nc(SCc3ccc(NC(=O)Nc4cccc(C#N)c4)cc3)[nH]c(=O)c2C#N)c1` [Example 3o] here?
A: < 20 µM

Q: `COc1cccc(-c2nc(SCc3ccc(NC(=O)Nc4ccc5c(c4)OCO5)cc3)[nH]c(=O)c2C#N)c1` [Example 3p] was tested. Which IC50 did it give?
A: < 20 µM

Q: Which IC50 does the source give for `COc1cccc(-c2nc(SCc3ccc(NC(=O)Nc4c(Cl)cccc4Cl)cc3)[nH]c(=O)c2C#N)c1` [Example 3q] here?
A: > 40 µM

Q: How did the IC50 turn out when `COc1cccc(-c2nc(SCc3ccc(NC(=O)Nc4cc(F)cc5c4OCOC5)cc3)[nH]c(=O)c2C#N)c1` [Example 3r] was run?
A: < 5 µM

Q: With `COc1cccc(-c2nc(SCc3ccc(NC(=O)Nc4ccc(Cl)c(C(F)(F)F)c4)cc3)[nH]c(=O)c2C#N)c1` [Example 3s] as the compound, how does the IC50 read?
A: < 5 µM

Q: `COc1cccc(-c2nc(SCc3ccc(NC(=O)Nc4cc(C(F)(F)F)ccc4Cl)cc3)[nH]c(=O)c2C#N)c1` [Example 3t] was tested. Which IC50 did it give?
A: < 5 µM

Q: With `COc1cccc(-c2nc(SCc3ccc(NC(=O)Nc4cc([N+](=O)[O-])ccc4F)cc3)[nH]c(=O)c2C#N)c1` [Example 3u] as the compound, how does the IC50 read?
A: < 10 µM

Q: How did the IC50 turn out when `COc1cccc(-c2nc(SCc3ccc(NC(=O)Nc4cccc(Oc5ccccc5)c4)cc3)[nH]c(=O)c2C#N)c1` [Example 3v] was run?
A: < 1 µM

Q: With `COc1cccc(-c2nc(SCc3ccc(NC(=O)NCCc4cccs4)cc3)[nH]c(=O)c2C#N)c1` [Example 3w] as the compound, how does the IC50 read?
A: < 5 µM

Q: For `COc1cccc(-c2nc(SCc3ccc(NC(=O)Nc4cc(C(F)(F)F)cc(C(F)(F)F)c4)cc3)[nH]c(=O)c2C#N)c1` [Example 3x], which IC50 is on record?
A: < 1 µM

Q: For `COc1cccc(-c2nc(SCc3ccc(NC(=O)NC4CCCCC4)cc3)[nH]c(=O)c2C#N)c1` [Example 3y], which IC50 is on record?
A: < 1 µM

Q: `COc1cccc(-c2nc(SCc3ccc(NC(=O)NC(c4ccccc4)c4ccccc4)cc3)[nH]c(=O)c2C#N)c1` [Example 3z] was tested. Which IC50 did it give?
A: < 1 µM

Q: `COc1cccc(-c2nc(SCc3cccc(NCc4ccc(OCCN(C)c5ccncc5)cc4)c3)[nH]c(=O)c2C#N)c1` [Example 4b] was tested. Which IC50 did it give?
A: > 40 µM

Q: `N#Cc1c(-c2cccc(Cn3cncn3)c2)nc(SCc2cccc(NC(=O)c3ccc(Cl)c(Cl)c3)c2)[nH]c1=O` [Example 4bb] was tested. Which IC50 did it give?
A: > 40 µM

Q: How did the IC50 turn out when `COc1cccc(-c2nc(SCc3cccc(NCC4CCN(c5ccncc5)CC4)c3)[nH]c(=O)c2C#N)c1` [Example 4c] was run?
A: > 40 µM

Q: With `N#Cc1c(-c2cccc(Cn3ccnc3)c2)nc(SCc2cccc(NC(=O)c3ccc(Cl)c(Cl)c3)c2)[nH]c1=O` [Example 4cc] as the compound, how does the IC50 read?
A: > 40 µM

Q: How did the IC50 turn out when `CCc1nc(C)c(CNc2cccc(CSc3nc(-c4cccc(OC)c4)c(C#N)c(=O)[nH]3)c2)[nH]1` [Example 4e] was run?
A: > 40 µM

Q: Which IC50 does the source give for `COc1cccc(-c2nc(SCc3cc(NCc4ccc(Cl)c(Cl)c4)ccc3O)[nH]c(=O)c2C#N)c1` [Example 4f] here?
A: < 5 µM

Q: For `COc1cccc(-c2nc(SCc3cc(NCc4ccc(Cl)c(Cl)c4)cc([N+](=O)[O-])c3)[nH]c(=O)c2C#N)c1` [Example 4g], which IC50 is on record?
A: < 5 µM

Q: Which IC50 does the source give for `COc1cccc(-c2nc(SCCCCCn3cnc4c(NCc5ccccc5)ncnc43)[nH]c(=O)c2C#N)c1` [Example 4h] here?
A: > 40 µM

Q: With `COc1cccc(-c2nc(SCCCn3cnc4c(NCc5ccccc5)ncnc43)[nH]c(=O)c2C#N)c1` [Example 4i] as the compound, how does the IC50 read?
A: > 40 µM

Q: How did the IC50 turn out when `N#Cc1c(-c2cccc(C(=O)O)c2)nc(SCCCn2cnc3c(NCc4ccccc4)ncnc32)[nH]c1=O` [Example 4j] was run?
A: > 40 µM

Q: How did the IC50 turn out when `N#Cc1c(-c2cccc(O)c2)nc(SCc2cccc(NCC3CCN(c4ccncc4)CC3)c2)[nH]c1=O` [Example 4k] was run?
A: > 40 µM

Q: With `N#Cc1c(-c2cccc(O)c2)nc(SCc2cccc(NC(=O)c3ccc(Cl)c(Cl)c3)c2)[nH]c1=O` [Example 4l] as the compound, how does the IC50 read?
A: < 5 µM
